From ChEMBL document CHEMBL1201861, “Genomics of Drug Sensitity in Cancer screening data, Wellcome Trust Sanger Institute”

What was measured:
DG-75 = assay: cells; type: functional, cell-based; conditions: Homo sapiens;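 also: growth inhibition of DG-75 cells, read out with a cell viability assay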
Description: SANGER: Inhibition of human DG-75 cell growth in a cell viability assay.

Daudi = assay: cells; type: functional, cell-based; conditions: Homo sapiens;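 also: growth inhibition of Daudi cells, read out by a viability assay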
Description: SANGER: Inhibition of human Daudi cell growth in a cell viability assay.

ECC4 = assay: cells; type: functional, cell-based; conditions: Homo sapiens;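 also: growth inhibition of ECC4 cells, read out with a cell viability assay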
Description: SANGER: Inhibition of human ECC4 cell growth in a cell viability assay.

EVSA-T = assay: cells; type: functional, cell-based, Homo sapiens; conditions: Homo sapiens, EVSA-T;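 also: growth inhibition of EVSA-T cells, read out with a cell viability assay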
Description: SANGER: Inhibition of human EVSA-T cell growth in a cell viability assay.

EW-12 = assay: SANGER: Inhibition of human EW-12 cell growth in a cell viability assay.; type: functional, cell-based
GDM-1 = assay: cells; type: functional, cell-based; conditions: Homo sapiens;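 also: cell viability readout used to measure growth inhibition of human GDM-1 cells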
Description: SANGER: Inhibition of human GDM-1 cell growth in a cell viability assay.

Kasumi 1 = assay: cells; type: functional, cell-based; conditions: Homo sapiens;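 also: growth inhibition of human Kasumi-1 cells, read out by a cell viability assay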
Description: SANGER: Inhibition of human KASUMI-1 cell growth in a cell viability assay.

KMS-12-PE = assay: cells; type: functional, cell-based; conditions: Homo sapiens;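 also: growth inhibition of human KMS-12-PE cells, measured with a cell viability assay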
Description: SANGER: Inhibition of human KMS-12-PE cell growth in a cell viability assay.

LC4-1 = assay: cells; type: functional, cell-based; conditions: Homo sapiens;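 also: growth inhibition of LC4-1 cells, read out with a cell viability assay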
Description: SANGER: Inhibition of human LC4-1 cell growth in a cell viability assay.

LP-1 = assay: cells; type: functional, cell-based; conditions: Homo sapiens;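 also: growth inhibition of human LP-1 cells, with the read-out taken from a cell viability assay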
Description: SANGER: Inhibition of human LP-1 cell growth in a cell viability assay.

MC-CAR = assay: cells; type: functional, cell-based; conditions: Homo sapiens;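 also: growth inhibition of the human MC-CAR cell line, read out by a cell viability assay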
Description: SANGER: Inhibition of human MC-CAR cell growth in a cell viability assay.

MDA-MB-134-VI = assay: cells; type: functional, cell-based; conditions: Homo sapiens
Description: SANGER: Inhibition of human MDA-MB-134-VI cell growth in a cell viability assay.

MHH-CALL-2 = assay: cells; type: functional, cell-based; conditions: Homo sapiens;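 also: growth inhibition of the cell line, read out in a cell viability assay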
Description: SANGER: Inhibition of human MHH-CALL-2 cell growth in a cell viability assay.

NCI-H128 = assay: SANGER: Inhibition of human NCI-H128 cell growth in a cell viability assay.; type: functional, cell-based
NCI-H2081 = assay: cells; type: functional, cell-based; conditions: Homo sapiens;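 also: growth inhibition of human NCI-H2081 cells, read out with a cell viability assay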
Description: SANGER: Inhibition of human NCI-H2081 cell growth in a cell viability assay.

OPM-2 = assay: cells; type: functional, cell-based; conditions: Homo sapiens;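 also: growth of OPM-2 cells measured with a viability assay, IC50 for suppression of proliferation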
Description: SANGER: Inhibition of human OPM-2 cell growth in a cell viability assay.

RL = assay: cells; type: functional, cell-based; conditions: Homo sapiens
Description: SANGER: Inhibition of human RL cell growth in a cell viability assay.

Raji = assay: cells; type: functional, cell-based; conditions: Homo sapiens;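 also: cell viability assay measuring inhibition of Raji cell growth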
Description: SANGER: Inhibition of human Raji cell growth in a cell viability assay.

SKM-1 = assay: SANGER: Inhibition of human SKM-1 cell growth in a cell viability assay.; type: functional, cell-based
ST486 = assay: SANGER: Inhibition of human ST486 cell growth in a cell viability assay.; type: functional, cell-based
BL-70 = assay: SANGER: Inhibition of human BL-70 cell growth in a cell viability assay.; type: functional, cell-based
TUR = assay: cells; type: functional, cell-based; conditions: Homo sapiens;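 also: growth inhibition of human TUR cells, read out with a cell viability assay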
Description: SANGER: Inhibition of human TUR cell growth in a cell viability assay.

YT = assay: cells; type: functional, cell-based; conditions: Homo sapiens
Description: SANGER: Inhibition of human YT cell growth in a cell viability assay.

D-423MG = assay: cells; type: functional, cell-based; conditions: Homo sapiens
Description: SANGER: Inhibition of human D-423MG cell growth in a cell viability assay.

HT55 = assay: cells; type: functional, cell-based, Homo sapiens; conditions: Homo sapiens, HT55;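 also: cell viability readout measuring growth inhibition of human HT55 cells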
Description: SANGER: Inhibition of human HT55 cell growth in a cell viability assay.

MEL-JUSO = assay: cells; type: functional, cell-based, Homo sapiens; conditions: Homo sapiens, MEL-JUSO;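 also: growth inhibition of human MEL-JUSO cells, read out with a cell viability assay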
Description: SANGER: Inhibition of human MEL-JUSO cell growth in a cell viability assay.

NBsusSR = assay: cells; type: functional, cell-based; conditions: Homo sapiens;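 also: growth inhibition of the human cell line, read out with a cell viability assay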
Description: SANGER: Inhibition of human NBsusSR cell growth in a cell viability assay.

NCI-H1703 = assay: cells; type: functional, cell-based, Homo sapiens; conditions: Homo sapiens, NCI-H1703;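 also: growth inhibition of NCI-H1703 cells, read out via a cell viability assay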
Description: SANGER: Inhibition of human NCI-H1703 cell growth in a cell viability assay.

NCI-H630 = assay: cells; type: functional, cell-based, Homo sapiens; conditions: Homo sapiens, NCI-H630;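 also: growth inhibition of NCI-H630 cells, read out with a cell viability assay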
Description: SANGER: Inhibition of human NCI-H630 cell growth in a cell viability assay.

RH-18 = assay: cells; type: functional, cell-based; conditions: Homo sapiens, Rh18;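 also: growth inhibition of human RH-18 cells, read out with a cell viability assay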
Description: SANGER: Inhibition of human RH-18 cell growth in a cell viability assay.

SW 1116 = assay: cells; type: functional, cell-based; conditions: Homo sapiens;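 also: growth inhibition of SW1116 cells, read out with a cell viability assay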
Description: SANGER: Inhibition of human SW1116 cell growth in a cell viability assay.

SW900 = assay: cells; type: functional, cell-based; conditions: Homo sapiens;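 also: IC50 is the concentration that inhibits SW900 cell growth, measured by a cell viability assay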
Description: SANGER: Inhibition of human SW900 cell growth in a cell viability assay.

BALL-1 = assay: cells; type: functional, cell-based; conditions: Homo sapiens;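 also: growth inhibition of BALL-1 cells, read out with a cell viability assay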
Description: SANGER: Inhibition of human BALL-1 cell growth in a cell viability assay.

TI-73 = assay: cells; type: functional, cell-based; conditions: Homo sapiens;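 also: cell viability assay measuring how much compounds suppress growth of the cultured cell line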
Description: SANGER: Inhibition of human TI-73 cell growth in a cell viability assay.

YH-13 = assay: cells; type: functional, cell-based; conditions: Homo sapiens;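 also: cell viability readout of growth suppression in the human YH-13 cell line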
Description: SANGER: Inhibition of human YH-13 cell growth in a cell viability assay.

CFPAC-1 = assay: cells; type: functional, cell-based; conditions: Homo sapiens;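 also: cell viability readout used to gauge suppression of CFPAC-1 cell proliferation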
Description: SANGER: Inhibition of human CFPAC-1 cell growth in a cell viability assay.

G-361 = assay: cells; type: functional, cell-based, Homo sapiens; conditions: Homo sapiens, G-361
HCT-15 = assay: cells; type: functional, cell-based, Homo sapiens; conditions: Homo sapiens, HCT-15;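 also: cell viability readout, IC50 reflecting suppression of HCT-15 cell growth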
Description: SANGER: Inhibition of human HCT-15 cell growth in a cell viability assay.

NCI-H460 = assay: cells; type: functional, cell-based, Homo sapiens; conditions: Homo sapiens, NCI-H460;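 also: cell viability assay scoring growth inhibition of human NCI-H460 cells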
Description: SANGER: Inhibition of human NCI-H460 cell growth in a cell viability assay.

| SMILES | IC50 (DG-75) | IC50 (Daudi) | IC50 (ECC4) | IC50 (EVSA-T) | IC50 (EW-12) | IC50 (GDM-1) | IC50 (Kasumi 1) | IC50 (D-423MG) | IC50 (HT55) | IC50 (MEL-JUSO) | IC50 (NBsusSR) | IC50 (NCI-H1703) | IC50 (NCI-H630) | IC50 (RH-18) | IC50 (SW 1116) | IC50 (SW900) | IC50 (BALL-1) | IC50 (TI-73) | IC50 (YH-13) | IC50 (CFPAC-1) | also measured |
| --- | --- | --- | --- | --- | --- | --- | --- | --- | --- | --- | --- | --- | --- | --- | --- | --- | --- | --- | --- | --- | --- |
| CCc1nc(N)nc(N)c1-c1ccc(Cl)cc1 [PYRIMETHAMINE] | 14.6 µM | > 20 µM | > 20 µM | > 20 µM | > 20 µM | > 20 µM | > 20 µM |  |  |  |  |  |  |  |  |  |  |  |  |  | IC50 (KMS-12-PE): > 20 µM; IC50 (LC4-1): > 20 µM; IC50 (LP-1): > 20 µM; IC50 (MC-CAR): > 20 µM; IC50 (MDA-MB-134-VI): > 20 µM; IC50 (MHH-CALL-2): > 20 µM; IC50 (NCI-H128): > 20 µM; IC50 (NCI-H2081): > 20 µM; IC50 (OPM-2): > 20 µM; IC50 (RL): > 20 µM; IC50 (Raji): > 20 µM; IC50 (SKM-1): > 20 µM; IC50 (ST486): 9.31 µM; IC50 (BL-70): 14.6 µM; IC50 (TUR): > 20 µM; IC50 (YT): > 20 µM |
| O=C(/C=C/c1ccccc1)NC(NC(=S)Nc1cccc2cccnc12)C(Cl)(Cl)Cl (stereo not drawn) [SALUBRINAL] | > 16 µM | 6.34 µM | > 16 µM | 12.9 µM | > 16 µM | > 16 µM | > 16 µM |  |  |  |  |  |  |  |  |  |  |  |  |  | IC50 (KMS-12-PE): > 16 µM; IC50 (LC4-1): > 16 µM; IC50 (LP-1): 3.37 µM; IC50 (MC-CAR): > 16 µM; IC50 (MDA-MB-134-VI): > 16 µM; IC50 (MHH-CALL-2): > 16 µM; IC50 (NCI-H128): > 16 µM; IC50 (NCI-H2081): > 16 µM; IC50 (OPM-2): > 16 µM; IC50 (RL): > 16 µM; IC50 (Raji): > 16 µM; IC50 (SKM-1): > 16 µM; IC50 (ST486): 8.54 µM; IC50 (BL-70): > 16 µM; IC50 (TUR): > 16 µM; IC50 (YT): > 16 µM |
| O=C(c1cc(Cc2n[nH]c(=O)c3ccccc23)ccc1F)N1CCN(C(=O)C2CC2)CC1 [OLAPARIB] |  |  |  |  |  |  | 4.4 µM | > 5 µM | > 5 µM | > 5 µM | > 5 µM | > 5 µM | > 5 µM | > 5 µM | > 5 µM | > 5 µM | > 5 µM | > 5 µM | > 5 µM | > 5 µM |  |
| CC(=O)O[C@@]12CO[C@@H]1C[C@H](O)[C@@]1(C)C(=O)[C@H](O)C3=C(C)[C@@H](OC(=O)[C@H](O)[C@@H](NC(=O)OC(C)(C)C)c4ccccc4)C[C@@](O)([C@@H](OC(=O)c4ccccc4)[C@H]21)C3(C)C [DOCETAXEL] |  |  |  |  |  |  | 0.00511 µM | 0.0013 µM | > 0.01 µM | 0.00639 µM | 0.0011 µM | 0.00157 µM | > 0.01 µM | > 0.01 µM | > 0.01 µM | 0.00755 µM | > 0.01 µM | 0.00144 µM | 0.000791 µM | > 0.01 µM | IC50 (G-361): > 0.01 µM |
| CN(Cc1cnc2nc(N)nc(N)c2n1)c1ccc(C(=O)N[C@@H](CCC(=O)O)C(=O)O)cc1 [METHOTREXATE] |  |  |  |  |  |  |  | > 0.2 µM | > 0.2 µM | > 0.2 µM | 0.0296 µM | > 0.2 µM | > 0.2 µM | > 0.2 µM | > 0.2 µM | > 0.2 µM | > 0.2 µM | > 0.2 µM | > 0.2 µM | > 0.2 µM |  |
| Cn1cc(C2=C(c3ccc(Cl)cc3Cl)C(=O)NC2=O)c2ccccc21 [SB-216763] |  |  |  |  |  |  |  | > 10 µM |  | > 10 µM | > 10 µM | > 10 µM | > 10 µM | > 10 µM | > 10 µM | > 10 µM | > 10 µM | > 10 µM | > 10 µM | > 10 µM | IC50 (G-361): > 10 µM; IC50 (HCT-15): > 10 µM; IC50 (NCI-H460): > 10 µM |
